Laboratory results from patent US20260184693A1, “INHIBITORS OF SOLUTE CARRIER FAMILY 6A MEMBER 19 (SLC6A19) AND METHODS OF USE THEREOF” (Maze Therapeutics, Inc., priority 2022, published 2026).

Biological target: T1, human SLC6A19 (Homo sapiens, UniProt Q695T7)
T1 construct: expressed in transfected cells
T1 sequence (Q695T7 1-634): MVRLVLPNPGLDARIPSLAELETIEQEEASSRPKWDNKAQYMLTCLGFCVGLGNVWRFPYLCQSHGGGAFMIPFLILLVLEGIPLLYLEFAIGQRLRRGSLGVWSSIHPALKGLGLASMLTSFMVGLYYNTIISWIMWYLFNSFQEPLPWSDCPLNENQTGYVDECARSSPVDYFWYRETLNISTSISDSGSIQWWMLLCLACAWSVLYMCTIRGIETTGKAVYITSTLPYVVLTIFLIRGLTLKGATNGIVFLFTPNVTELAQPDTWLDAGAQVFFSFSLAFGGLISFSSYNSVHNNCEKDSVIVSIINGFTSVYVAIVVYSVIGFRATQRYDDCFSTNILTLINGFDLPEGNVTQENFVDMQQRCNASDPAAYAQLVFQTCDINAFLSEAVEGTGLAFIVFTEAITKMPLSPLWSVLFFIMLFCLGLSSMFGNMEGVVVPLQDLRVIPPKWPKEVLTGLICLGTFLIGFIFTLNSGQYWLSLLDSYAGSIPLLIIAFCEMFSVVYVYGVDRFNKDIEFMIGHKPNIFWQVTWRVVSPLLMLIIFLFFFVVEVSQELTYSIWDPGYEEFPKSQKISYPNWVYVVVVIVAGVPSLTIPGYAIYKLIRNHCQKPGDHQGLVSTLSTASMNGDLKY
T1 sequence (Q9HBJ8 15-222 partner): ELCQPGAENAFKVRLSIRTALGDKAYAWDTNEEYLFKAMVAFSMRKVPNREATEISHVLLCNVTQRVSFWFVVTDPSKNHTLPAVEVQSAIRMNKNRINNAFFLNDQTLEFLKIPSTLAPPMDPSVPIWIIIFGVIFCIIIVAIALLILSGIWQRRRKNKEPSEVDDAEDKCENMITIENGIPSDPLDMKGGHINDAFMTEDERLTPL
Experiment: Example B2: 13C6,15N-isoleucine uptake, RapidFire mass spectrometry, in CHO cells with doxycycline-inducible expression of human SLC6A19 and TMEM27
Format: cell-based
Conditions: read-out: SLC6A19_RapidFire Uptake Assay IC50
Procedure, shortened: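 Labelled isoleucine (13C6,15N; 2 mM added) was given 20 min at 37 °C, following a 20-min compound pre-treatment (10-point 2-fold series, duplicate). Cells were doxycycline-induced CHO co-expressing human SLC6A19 and TMEM27. Intracellular label was quantified by RapidFire-MS peak areas against a 13C-leucine standard.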

| Compound | IC50 |
| --- | --- |
| C[C@@H](O)C(=O)N1CCC[C@@H](N(C)C(=O)NCc2cc3cc(Cl)ccc3[nH]2)C1 [Compound 186, 3-((5-chloro-1H-indol-2-yl)methyl)-1-((R)-1-((R)-2-hydroxypropanoyl)piperidin-3-yl)-1-methylurea] | 5600 nM |
| CN(C(=O)NCc1cc2cc(Cl)ccc2[nH]1)[C@@H]1CCCN(C(=O)CNC(N)=O)C1 [Compound 29, (R)-1-(1-(carbamoylglycyl)piperidin-3-yl)-3-((5-chloro-1H-indol-2-yl)methyl)-1-methylurea] | 2490 nM |
| CN(C(=O)NCc1cc2cc(Cl)ccc2[nH]1)[C@@H]1CCCN(C(=O)C2CN(S(C)(=O)=O)C2)C1 [Compound 103, (R)-3-((5-chloro-1H-indol-2-yl)methyl)-1-methyl-1-(1-(1-(methylsulfonyl)azetidine-3-carbonyl)piperidin-3-yl)urea] | 2240 nM |
| COc1ncc(C(=O)N2CCC[C@@H](N(C)C(=O)NCc3cc4cc(Cl)ccc4[nH]3)C2)cc1F [Compound 87, (R)-3-((5-chloro-1H-indol-2-yl)methyl)-1-(1-(5-fluoro-6-methoxynicotinoyl)piperidin-3-yl)-1-methylurea] | 1670 nM |
| CN(C(=O)NCc1cc2cc(Cl)ccc2[nH]1)[C@@H]1CCCN(C(=O)Cc2cnccn2)C1 [Compound 62, (R)-3-((5-chloro-1H-indol-2-yl)methyl)-1-methyl-1-(1-(2-(pyrazin-2-yl)acetyl)piperidin-3-yl)urea] | 1350 nM |
| CC(=O)N1CCC[C@@H](N(C)C(=O)NCc2cc3cc(F)ccc3[nH]2)C1 [Compound 161, (R)-1-(1-acetylpiperidin-3-yl)-3-((5-fluoro-1H-indol-2-yl)methyl)-1-methylurea] | 493 nM |
| CC(=O)NCC(=O)N1CCC[C@@H](N(C)C(=O)NCc2cc3cc(Cl)ccc3[nH]2)C1 [Compound 53, (R)-N-(2-(3-(3-((5-chloro-1H-indol-2-yl)methyl)-1-methylureido)piperidin-1-yl)-2-oxoethyl)acetamide] | 1630 nM |
| CN(C(=O)NCc1cc2cc(Cl)ccc2[nH]1)[C@@H]1CCCN(C(=O)Cc2ccn[nH]2)C1 [Compound 59, (R)-1-(1-(2-(1H-pyrazol-5-yl)acetyl)piperidin-3-yl)-3-((5-chloro-1H-indol-2-yl)methyl)-1-methylurea] | 529 nM |
| CC(=O)N1CCC[C@@H](N(C)C(=O)NCc2cc3ccc(C#N)cc3[nH]2)C1 [Compound 172, (R)-1-(1-acetylpiperidin-3-yl)-3-((6-cyano-1H-indol-2-yl)methyl)-1-methylurea] | 10900 nM |
| CC(=O)N1CCC[C@@H](N(C)C(=O)NCc2cc3[nH]ccc3cc2Cl)C1 [Compound 165, (R)-1-(1-acetylpiperidin-3-yl)-3-((5-chloro-1H-indol-6-yl)methyl)-1-methylurea] | 8030 nM |
| CN(C(=O)NCc1cc2cc(Cl)ccc2[nH]1)[C@@H]1CCCN(C(=O)C2CNC2)C1 [Compound 130, (R)-1-(1-(azetidine-3-carbonyl)piperidin-3-yl)-3-((5-chloro-1H-indol-2-yl)methyl)-1-methylurea] | 12100 nM |
| CN(C(=O)NCc1cc2cc(Cl)ccc2[nH]1)[C@@H]1CCCN(C(=O)c2ncc(F)cn2)C1 [Compound 24, (R)-3-((5-chloro-1H-indol-2-yl)methyl)-1-(1-(5-fluoropyrimidine-2-carbonyl)piperidin-3-yl)-1-methylurea] | 4200 nM |
| CC(=O)N1CCC[C@@H](N(C)C(=O)NCc2ccc3c(C)c[nH]c3c2)C1 [Compound 223, (R)-1-(1-acetylpiperidin-3-yl)-1-methyl-3-((3-methyl-1H-indol-6-yl)methyl)urea] | 4670 nM |
| CN(C(=O)NCc1cc2cc(Cl)ccc2[nH]1)[C@@H]1CCCN(C(=O)Cn2nccn2)C1 [Compound 30, (R)-1-(1-(2-(2H-1,2,3-triazol-2-yl)acetyl)piperidin-3-yl)-3-((5-chloro-1H-indol-2-yl)methyl)-1-methylurea] | 3700 nM |
| CC(C(=O)N1CCC[C@@H](N(C)C(=O)NCc2cc3cc(Cl)ccc3[nH]2)C1)C1(O)CCC1 (stereo partly drawn) [Compound 105, 3-((5-chloro-1H-indol-2-yl)methyl)-1-((3R)-1-(2-(1-hydroxycyclobutyl)propanoyl)piperidin-3-yl)-1-methylurea] | > 27000 nM |
| CN(C(=O)NCc1cc2cc(Cl)ccc2[nH]1)[C@@H]1CCCN(C(=O)C2CCOCC2)C1 [Compound 95, (R)-3-((5-chloro-1H-indol-2-yl)methyl)-1-methyl-1-(1-(tetrahydro-2H-pyran-4-carbonyl)piperidin-3-yl)urea] | 3240 nM |
| CN(C(=O)NCc1cc2cc(Cl)ccc2[nH]1)[C@@H]1CCCN(C(=O)c2c[nH]cn2)C1 [Compound 13, (R)-1-(1-(1H-imidazole-4-carbonyl)piperidin-3-yl)-3-((5-chloro-1H-indol-2-yl)methyl)-1-methylurea] | 1610 nM |
| CN(C(=O)NCc1cc2cc(Cl)ccc2[nH]1)[C@@H]1CCCN(C(=O)C2COC2)C1 [Compound 1, (R)-3-((5-chloro-1H-indol-2-yl)methyl)-1-methyl-1-(1-(oxetane-3-carbonyl)piperidin-3-yl)urea] | 252 nM |
| CN(C(=O)NCc1cc2cc(Cl)ccc2[nH]1)[C@@H]1CCCN(C(=O)c2ccccc2)C1 [Compound 52, (R)-1-(1-benzoylpiperidin-3-yl)-3-((5-chloro-1H-indol-2-yl)methyl)-1-methylurea] | 366 nM |
| Cc1n[nH]nc1C(=O)N1CCC[C@@H](N(C)C(=O)NCc2cc3cc(Cl)ccc3[nH]2)C1 [Compound 25, (R)-3-((5-chloro-1H-indol-2-yl)methyl)-1-methyl-1-(1-(5-methyl-2H-1,2,3-triazole-4-carbonyl)piperidin-3-yl)urea] | 11600 nM |
| CN(C(=O)NCc1cc2cc(Cl)ccc2[nH]1)[C@@H]1CCCN(C(=O)Cc2cnn(C)c2)C1 [Compound 86, (R)-3-((5-chloro-1H-indol-2-yl)methyl)-1-methyl-1-(1-(2-(1-methyl-1H-pyrazol-4-yl)acetyl)piperidin-3-yl)urea] | 559 nM |
| CN(C(=O)NCc1cc2cc(Cl)ccc2[nH]1)[C@@H]1CCCN(C(=O)c2cnn(C)c2)C1 [Compound 55, (R)-3-((5-chloro-1H-indol-2-yl)methyl)-1-methyl-1-(1-(1-methyl-1H-pyrazole-4-carbonyl)piperidin-3-yl)urea] | 571 nM |
| CN(C(=O)NCc1cc2cc(Cl)ccc2[nH]1)[C@@H]1CCCN(C(=O)CC#N)C1 [Compound 3, (R)-3-((5-chloro-1H-indol-2-yl)methyl)-1-(1-(2-cyanoacetyl)piperidin-3-yl)-1-methylurea] | 359 nM |
| CC(=O)N1CCC[C@@H](N(C)C(=O)NCc2cc3ccc(OCc4cncs4)cc3[nH]2)C1 [Compound 136, (R)-1-(1-acetylpiperidin-3-yl)-1-methyl-3-((6-(thiazol-5-ylmethoxy)-1H-indol-2-yl)methyl)urea] | 3950 nM |
| CN(C(=O)NCc1cc2cc(Cl)ccc2[nH]1)[C@@H]1CCCN(C(=O)C2CCCC2)C1 [Compound 84, (R)-3-((5-chloro-1H-indol-2-yl)methyl)-1-(1-(cyclopentanecarbonyl)piperidin-3-yl)-1-methylurea] | 176 nM |
| Cc1cc(COc2ccc3cc(CNC(=O)N(C)[C@@H]4CCCN(c5cccnn5)C4)[nH]c3c2)no1 [Compound 142, (R)-1-methyl-3-((6-((5-methylisoxazol-3-yl)methoxy)-1H-indol-2-yl)methyl)-1-(1-(pyridazin-3-yl)piperidin-3-yl)urea] | 1310 nM |
